Measured values from PubChem BioAssay AID651592 (Sanford-Burnham Center for Chemical Genomics, 2012).

Assays:
[1] = inhibitors of NFkB activation in CF airway cells, SAR follow-up, KKLEB cells, panel, IL8 HTRF, NFkB-GFP (AID 651592); conditions: PAF/TNFa-induced NFkB-GFP / IL8 HTRF, CF-PAF assay;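 further: immortalized cystic fibrosis airway epithelial KKLEB cells with an NF-kB GFP reporter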
[2] = target: Interleukin-8 (Homo sapiens) (UniProt P10145); experiment: as above; conditions: PAF/TNFa-induced NFkB-GFP / IL8 HTRF
Interleukin-8 (Homo sapiens), sequence (P10145 whole entry, looked up): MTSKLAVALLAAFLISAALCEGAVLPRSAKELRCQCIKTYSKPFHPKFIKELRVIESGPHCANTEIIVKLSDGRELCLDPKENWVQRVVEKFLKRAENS

[3] = test system: IL8; experiment: as above; conditions: PAF/TNFa-induced NFkB-GFP / IL8 HTRF, mean of runs, mean IC50 across panel replicates
[4] = mean of runs, mean IC50 across panel replicates

IC50 [1, 4]	IC50 ([1]; run 1)	IC50 ([1]; run 2)	IC50 ([1]; run 3)	IC50 ([1]; run 4)	IC50 ([1]; run 5)	IC50 ([1]; run 6)	IC50 ([2]; IL8, PAF-induced, run 1)	IC50 ([2]; IL8, PAF-induced, run 2)	IC50 ([2]; IL8, PAF-induced, run 3)	IC50 ([2]; IL8, PAF-induced, run 4)	IC50 ([2]; IL8, PAF-induced, run 5)	IC50 ([2]; IL8, PAF-induced, run 6)	IC50 ([2]; IL8, TNFa-induced, run 1)	IC50 ([2]; IL8, TNFa-induced, run 2)	IC50 ([2]; IL8, TNFa-induced, run 3)	IC50 ([2]; IL8, TNFa-induced, run 4)	IC50 ([2]; IL8, TNFa-induced, run 5)	IC50 ([2]; IL8, TNFa-induced, run 6)	IC50 ([3]; PAF-induced)	Compound	also measured
43.9 µM	21.5 µM	21.6 µM	22.5 µM	> 66 µM	> 66 µM	> 66 µM	> 66 µM	> 66 µM	> 66 µM	> 66 µM	> 66 µM	> 66 µM	> 66 µM	> 66 µM	> 66 µM	> 66 µM	> 66 µM	> 66 µM	> 66 µM	O=C(Nc1ccc(N2CCN(C(=O)c3ccc(F)cc3)CC2)cc1)c1cccc(Br)c1	IC50 ([3]; TNFa-induced): > 66 µM
> 66 µM	> 66 µM	> 66 µM	> 66 µM	> 66 µM	> 66 µM	> 66 µM	> 66 µM	> 66 µM	> 66 µM	> 66 µM	> 66 µM	> 66 µM	> 66 µM	> 66 µM	> 66 µM	> 66 µM	> 66 µM	> 66 µM	> 66 µM	O=C(Nc1ccc(N2CCN(C(=O)c3ccccc3Cl)CC2)cc1)c1cc(Br)cc(Br)c1	IC50 ([3]; TNFa-induced): > 66 µM
42.6 µM	18.1 µM	18.3 µM	21.5 µM	> 66 µM	> 66 µM	> 66 µM	> 66 µM	> 66 µM	> 66 µM	> 66 µM	> 66 µM	> 66 µM	> 66 µM	> 66 µM	> 66 µM	> 66 µM	> 66 µM	6.25 µM	> 66 µM	O=C(Nc1ccc(N2CCN(C(=O)c3ccccc3F)CC2)cc1)c1cccc(Br)c1	IC50 ([3]; TNFa-induced): 56 µM
20.5 µM	14.9 µM	16.6 µM	19.2 µM	20.7 µM	23.1 µM	28.5 µM	> 66 µM	4.44 µM	17.8 µM	> 66 µM	> 66 µM	> 66 µM	> 66 µM	> 66 µM	14.9 µM	> 66 µM	> 66 µM	8.25 µM	47.7 µM	O=C(Nc1ccc(N2CCN(C(=O)c3ccccc3)CC2)cc1)c1cccc(Br)c1	IC50 ([3]; TNFa-induced): 47.9 µM
9.11 µM	14.2 µM	15.7 µM	18.1 µM	1.81 µM	2.36 µM	2.48 µM	0.434 µM	0.974 µM	1.05 µM	0.181 µM	0.244 µM	0.248 µM	> 66 µM	> 66 µM	> 66 µM	> 66 µM	> 66 µM	14.8 µM	0.522 µM	CCOc1ccc(NCc2cc3c(-c4ccc(F)cc4)nn(-c4ccccc4)c3[nH]c2=O)cc1	IC50 ([3]; TNFa-induced): 57.5 µM
12.6 µM	13 µM	15.9 µM	16.2 µM	9.13 µM	10.5 µM	11.2 µM	10.3 µM	13.9 µM	14.1 µM	7.93 µM	8.32 µM	8.5 µM	> 66 µM	> 66 µM	> 66 µM	> 66 µM	> 66 µM	> 66 µM	10.5 µM	CCOc1ccc(NCc2cc3c(C)nn(-c4ccccc4)c3[nH]c2=O)cc1	IC50 ([3]; TNFa-induced): > 66 µM
45.7 µM	32.5 µM	40.3 µM	64.3 µM	> 66 µM	> 66 µM	> 66 µM	> 66 µM	> 66 µM	> 66 µM	> 66 µM	> 66 µM	> 66 µM	> 66 µM	> 66 µM	> 66 µM	> 66 µM	> 66 µM	> 66 µM	> 66 µM	O=C(Nc1ccc(N2CCN(C(=O)c3ccccc3F)CC2)cc1)c1ccccn1	IC50 ([3]; TNFa-induced): > 66 µM

Second part, the molecule before the results:

Compound	IC50 [1, 4]	IC50 ([1]; run 1)	IC50 ([1]; run 2)	IC50 ([1]; run 3)	IC50 ([1]; run 4)	IC50 ([1]; run 5)	IC50 ([1]; run 6)	IC50 ([2]; IL8, PAF-induced, run 1)	IC50 ([2]; IL8, PAF-induced, run 2)	IC50 ([2]; IL8, PAF-induced, run 3)	IC50 ([2]; IL8, PAF-induced, run 4)	IC50 ([2]; IL8, PAF-induced, run 5)	IC50 ([2]; IL8, PAF-induced, run 6)	IC50 ([2]; IL8, TNFa-induced, run 1)	IC50 ([2]; IL8, TNFa-induced, run 2)	IC50 ([2]; IL8, TNFa-induced, run 3)	IC50 ([2]; IL8, TNFa-induced, run 4)	IC50 ([2]; IL8, TNFa-induced, run 5)	IC50 ([2]; IL8, TNFa-induced, run 6)	IC50 ([3]; PAF-induced)	also measured
O=C(Nc1ccc(N2CCN(C(=O)c3ccccc3)CC2)cc1)c1ccncc1	39.7 µM	32.7 µM	38.2 µM	48.1 µM	> 66 µM	> 66 µM	> 66 µM	> 66 µM	> 66 µM	4.58 µM	> 66 µM	> 66 µM	> 66 µM	> 66 µM	> 66 µM	> 66 µM	> 66 µM	> 66 µM	> 66 µM	55.8 µM	IC50 ([3]; TNFa-induced): > 66 µM
O=C(Nc1ccc(N2CCN(C(=O)c3ccccc3Cl)CC2)cc1)c1ccccn1	39.5 µM	8.15 µM	14.4 µM	16.5 µM	> 66 µM	> 66 µM	> 66 µM	> 66 µM	12.5 µM	19.7 µM	3.66 µM	5.84 µM	53.2 µM	> 66 µM	> 66 µM	> 66 µM	> 66 µM	> 66 µM	> 66 µM	19 µM	IC50 ([3]; TNFa-induced): > 66 µM
Cc1ccc(NCc2cc3c(C(C)(C)C)nn(-c4ccccc4)c3[nH]c2=O)cc1	39.7 µM	> 66 µM	26 µM	43.2 µM	> 66 µM	13.4 µM	23.8 µM	2.68 µM	3.24 µM	3.47 µM	3.84 µM	5.83 µM	7.9 µM	> 66 µM	> 66 µM	> 66 µM	> 66 µM	> 66 µM	> 66 µM	4.49 µM	IC50 ([3]; TNFa-induced): > 66 µM
O=C(Nc1ccc(N2CCN(C(=O)c3ccccc3Cl)CC2)cc1)c1ccncc1	11.8 µM	7.29 µM	8.71 µM	9.34 µM	5.23 µM	11.3 µM	29 µM	> 66 µM	> 66 µM	> 66 µM	1.15 µM	3.67 µM	10 µM	> 66 µM	> 66 µM	2.69 µM	> 66 µM	> 66 µM	> 66 µM	35.5 µM	IC50 ([3]; TNFa-induced): 55.5 µM
O=C(Nc1ccc(N2CCN(C(=O)c3ccccc3)CC2)cc1)c1cccnc1	42.9 µM	17 µM	20.7 µM	21.9 µM	> 66 µM	> 66 µM	> 66 µM	> 66 µM	> 66 µM	7.51 µM	> 66 µM	> 66 µM	36.4 µM	> 66 µM	> 66 µM	> 66 µM	> 66 µM	> 66 µM	> 66 µM	40.3 µM	IC50 ([3]; TNFa-induced): > 66 µM
